How the values were obtained:
[1] = test system: AMARE; test: Post-emergence herbicidal action against AMARE; type: in vivo, Amaranthus retroflexus; conditions: Amaranthus retroflexus, 504 h, 20 g/ha, visual assessment about 3 weeks after treatment, 100% = plants have died, 0% = like control plants
In short: (§1)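 A WP or EC formulation diluted in water with 0.2% wetting agent was sprayed at 600 to 800 l/ha onto one-leaf-stage plants grown in sandy loam. About 3 weeks later, action was rated visually in percent, 100% being dead plants.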

[2] = test system: LOLRI; test: Post-emergence herbicidal action against LOLRI; type: in vivo, Lolium rigidum; conditions: Lolium rigidum, 504 h, dosage 20 g/ha
Protocol: Seeds of monocotyledonous and dicotyledonous weed and crop plants are laid out in sandy loam soil in wood-fiber pots, covered with soil and cultivated in a greenhouse under good growth conditions. 2 to 3 weeks after sowing, the test plants are treated at the one-leaf stage. The compounds of the invention, formulated in the form of wettable powders (WP) or as emulsion concentrates (EC), are then sprayed onto the green parts of the plants in the form of an aqueous suspension or emulsion at a water application rate equivalent to 600 to 800 l/ha, with addition of 0.2% wetting agent. After the test plants have been left to stand in the greenhouse under optimal growth conditions for about 3 weeks, the action of the preparations is assessed visually in comparison to untreated controls (herbicidal action in percent (%): 100% activity=the plants have died, 0% activity=like control plants). […] The tables below illustrate, in an illustrative manner, the post-emergence herbicidal action of the compounds of the invention, the herbicidal activity being stated in percent.

[3] = test system: AVEFA; test: Pre-emergence herbicidal action against AVEFA; type: in vivo, Avena fatua; conditions: Avena fatua, 504 h, pre-emergence
In short: (§2)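 Greenhouse pots of sandy loam held seeds covered with soil, onto which the compound was applied before emergence. An aqueous suspension or emulsion of WP or EC was used at 600 to 800 l/ha with 0.2% wetting agent. Percent damage was judged visually at 3 weeks.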

[4] = test system: ALOMY; test: Pre-emergence herbicidal action against ALOMY; type: in vivo, Alopecurus myosuroides; conditions: Alopecurus myosuroides, 504 h, pre-emergence; for pest or weed control at 80 g/ha: scored visually after 3 weeks vs untreated controls (100% = plants have died, 0% = like control plants)
In short: as §2

[5] = test system: ALOMY; test: Post-emergence herbicidal action against ALOMY; type: in vivo, Alopecurus myosuroides; conditions: Alopecurus myosuroides, 504 h, visual assessment about 3 weeks after treatment vs untreated controls; for pest or weed control at 20 g/ha: dosage 20 g/ha
In short: as §1

[6] = test system: ECHCG; test: Pre-emergence herbicidal action against ECHCG; type: in vivo, Echinochloa crus-galli; conditions: Echinochloa crus-galli, 504 h, 80 g/ha
In short: as §2

[7] = test system: AMARE; test: Pre-emergence herbicidal action against AMARE; type: in vivo, Amaranthus retroflexus; conditions: Amaranthus retroflexus, 504 h, scored visually after 3 weeks vs untreated controls, 100% = plants have died, 0% = like control plants
In short: as §2

[8] = test system: VIOTR; test: Post-emergence herbicidal action against VIOTR; type: in vivo, Viola tricolor; conditions: Viola tricolor, 504 h, 20 g/ha
In short: as §1

[9] = test system: ABUTH; test: Pre-emergence herbicidal action against ABUTH; type: in vivo, Abutilon theophrasti; conditions: Abutilon theophrasti, 504 h; for pest or weed control at 80 g/ha: scored visually after 3 weeks vs untreated controls (100% = plants have died, 0% = like control plants)
In short: as §2

[10] = test system: VERPE; test: Pre-emergence herbicidal action against VERPE; type: in vivo, Veronica persica; conditions: Veronica persica, 504 h, dosage 80 g/ha
In short: as §2

[11] = test system: MATIN; test: Pre-emergence herbicidal action against MATIN; type: in vivo, Matricaria inodora; conditions: Tripleurospermum inodorum, 504 h; for pest or weed control at 80 g/ha: dosage 80 g/ha
In short: as §2

[12] = test system: SETVI; test: Pre-emergence herbicidal action against SETVI; type: in vivo, Setaria viridis; conditions: Setaria viridis, 504 h; for pest or weed control at 20 g/ha: dosage 20 g/ha; for pest or weed control at 80 g/ha: dosage 80 g/ha
In short: as §2

[13] = test system: ECHCG; test: Post-emergence herbicidal action against ECHCG; type: in vivo, Echinochloa crus-galli; conditions: Echinochloa crus-galli, 504 h; for pest or weed control at 20 g/ha: dosage 20 g/ha
In short: as §1

[14] = test system: ABUTH; test: Post-emergence herbicidal action against ABUTH; type: in vivo, Abutilon theophrasti; conditions: Abutilon theophrasti, 504 h, visual assessment about 3 weeks after treatment vs untreated controls; for pest or weed control at 20 g/ha: dosage 20 g/ha
In short: as §1

[15] = test system: VIOTR; test: Pre-emergence herbicidal action against VIOTR; type: in vivo, Viola tricolor; conditions: Viola tricolor, 504 h; for pest or weed control at 20 g/ha: dosage 20 g/ha; for pest or weed control at 80 g/ha: dosage 80 g/ha
In short: as §2

[16] = test system: SETVI; test: Post-emergence herbicidal action against SETVI; type: in vivo, Setaria viridis; conditions: Setaria viridis, 504 h; for pest or weed control at 20 g/ha: dosage 20 g/ha
In short: as §1

[17] = test system: AVEFA; test: Post-emergence herbicidal action against AVEFA; type: in vivo, Avena fatua; conditions: Avena fatua, 504 h, 20 g/ha, visual assessment about 3 weeks after treatment, 100% = plants have died, 0% = like control plants
In short: as §1

[18] = test system: PHBPU; test: Post-emergence herbicidal action against PHBPU; type: in vivo, Pharbitis purpurea; conditions: Ipomoea purpurea, 504 h
In short: as §1

[19] = test system: POLCO; test: Post-emergence herbicidal action against POLCO; type: in vivo, Polygonum convolvulus; conditions: Fallopia convolvulus, 504 h, dosage 20 g/ha
In short: as §1

[20] = test system: HORMU; test: Post-emergence herbicidal action against HORMU; type: in vivo, Hordeum murinum; conditions: Hordeum murinum, 504 h, dosage 20 g/ha
In short: as §1

[21] = test system: DIGSA; test: Pre-emergence herbicidal action against DIGSA; type: in vivo, Digitaria sanguinalis; conditions: Digitaria sanguinalis, 504 h
In short: as §2

[22] = test system: STEME; test: Post-emergence herbicidal action against STEME; type: in vivo, Stellaria media; conditions: Stellaria media, 504 h
In short: as §1

[23] = test system: POLCO; test: Pre-emergence herbicidal action against POLCO; type: in vivo, Polygonum convolvulus; conditions: Fallopia convolvulus, 504 h, dosage 80 g/ha
In short: as §2

[24] = test system: STEME; test: Pre-emergence herbicidal action against STEME; type: in vivo, Stellaria media; conditions: Stellaria media, 504 h
In short: as §2

[25] = test system: MATIN; test: Post-emergence herbicidal action against MATIN; type: in vivo, Matricaria inodora; conditions: Tripleurospermum inodorum, 504 h
In short: as §1

[26] = test system: DIGSA; test: Post-emergence herbicidal action against DIGSA; type: in vivo, Digitaria sanguinalis; conditions: Digitaria sanguinalis, 504 h
In short: as §1

[27] = test system: PHBPU; test: Pre-emergence herbicidal action against PHBPU; type: in vivo, Pharbitis purpurea; conditions: Ipomoea purpurea, 504 h
In short: as §2

[28] = test system: HORMU; test: Pre-emergence herbicidal action against HORMU; type: in vivo, Hordeum murinum; conditions: Hordeum murinum, 504 h; 80 g/ha, pre-emergence
In short: as §2

[29] = 20 g/ha, scored visually after 3 weeks, 100% = plants have died, 0% = like control plants

SMILES: Cn1nnnc1NC(=O)c1ccc(Cl)c(C(=O)NC2CC2)c1Br [Example 1-351]
- pest or weed control at 20 g/ha [1]: 100%
- pest or weed control at 20 g/ha [2]: 80%
- pest or weed control at 80 g/ha [3]: 100%
- pest or weed control at 80 g/ha [4]: 100%
- pest or weed control at 20 g/ha [4, 29]: 100%
- pest or weed control at 5 g/ha ([5]; dosage 5 g/ha): 90%
- pest or weed control at 20 g/ha [5]: 90%
- pest or weed control at 80 g/ha [6]: 100%
- pest or weed control at 20 g/ha [7]: 100%
- pest or weed control at 80 g/ha [7]: 100%
- pest or weed control at 20 g/ha [8]: 80%
- pest or weed control at 80 g/ha [9]: 100%
- pest or weed control at 80 g/ha [10]: 90%
- pest or weed control at 80 g/ha [11]: 100%
- pest or weed control at 20 g/ha [12]: 100%
- pest or weed control at 80 g/ha [12]: 100%
- pest or weed control at 20 g/ha [13]: 100%
- pest or weed control at 20 g/ha [14]: 80%
- pest or weed control at 20 g/ha [15]: 100%
- pest or weed control at 80 g/ha [15]: 100%
- pest or weed control at 20 g/ha [16]: 100%
- pest or weed control at 20 g/ha [17]: 80%

SMILES: CCNC(=O)c1c(C(F)(F)F)ccc(C(=O)Nc2nnnn2CC)c1C [Example 2-26]
- pest or weed control at 5 g/ha ([18]; dosage 5 g/ha): 80%
- pest or weed control at 20 g/ha ([18]; dosage 20 g/ha): 80%
- pest or weed control at 20 g/ha [19]: 80%
- pest or weed control at 20 g/ha [1]: 100%
- pest or weed control at 20 g/ha [20]: 80%
- pest or weed control at 20 g/ha ([21]; dosage 20 g/ha): 100%
- pest or weed control at 80 g/ha ([21]; dosage 80 g/ha): 100%
- pest or weed control at 20 g/ha ([22]; 20 g/ha): 90%
- pest or weed control at 5 g/ha ([22]; dosage 5 g/ha): 80%
- pest or weed control at 80 g/ha [23]: 80%
- pest or weed control at 80 g/ha [3]: 100%
- pest or weed control at 20 g/ha [3, 29]: 80%
- pest or weed control at 80 g/ha [4]: 100%
- pest or weed control at 20 g/ha [5]: 80%
- pest or weed control at 20 g/ha ([24]; dosage 20 g/ha): 100%
- pest or weed control at 80 g/ha ([24]; dosage 80 g/ha): 100%
- pest or weed control at 80 g/ha [6]: 100%
- pest or weed control at 5 g/ha ([25]; dosage 5 g/ha): 80%
- pest or weed control at 20 g/ha ([25]; dosage 20 g/ha): 90%
- pest or weed control at 20 g/ha [7]: 100%
- pest or weed control at 80 g/ha [7]: 100%
- pest or weed control at 20 g/ha [8]: 80%
- pest or weed control at 5 g/ha ([26]; 5 g/ha): 90%
- pest or weed control at 20 g/ha ([26]; 20 g/ha): 90%
- pest or weed control at 80 g/ha [9]: 100%
- pest or weed control at 20 g/ha ([9]; dosage 20 g/ha, scored visually after 3 weeks vs untreated controls, 100% = plants have died, 0% = like control plants, read-out: Pre-emergence action against ABUTH (herbicidal activity in percent)): 100%
- pest or weed control at 20 g/ha ([11]; dosage 20 g/ha): 100%
- pest or weed control at 80 g/ha [11]: 100%
- pest or weed control at 20 g/ha ([27]; dosage 20 g/ha): 90%
- pest or weed control at 80 g/ha ([27]; dosage 80 g/ha): 100%
- pest or weed control at 20 g/ha [12]: 80%
- pest or weed control at 80 g/ha [12]: 100%
- pest or weed control at 5 g/ha ([13]; dosage 5 g/ha): 80%
- pest or weed control at 20 g/ha [13]: 80%
- pest or weed control at 80 g/ha [28]: 90%
- pest or weed control at 5 g/ha ([14]; dosage 5 g/ha): 100%
- pest or weed control at 20 g/ha [14]: 100%
- pest or weed control at 20 g/ha [15]: 100%
- pest or weed control at 80 g/ha [15]: 100%
- pest or weed control at 5 g/ha ([16]; dosage 5 g/ha): 80%
- pest or weed control at 20 g/ha [16]: 100%
- pest or weed control at 20 g/ha [17]: 80%
